Data on five compounds can be found in US8933039B2 (NPS Pharmaceuticals, Inc., priority 1995, dated 2015).

Non-standard residues stand in square brackets, D forms with d. Residues, ends and D or L forms follow the SMILES beside them. Pen = CC(C)(S)[C@H](N)C(=O)O; Phg = N[C@H](C(=O)O)c1ccccc1; Nva = CCC[C@H](N)C(=O)O; Abu = CC[C@H](N)C(=O)O; βAla = NCCC(=O)O

One data set has as its target DPP-IV (Homo sapiens, UniProt P27487). Nature of the data set: Assay for resistance to dipeptidyl peptidase IV (RP-HPLC of cleavage product). Particulars: human, isolated human placental DPP-IV (dipeptidyl peptidase IV), pH 7.4, % Cleaved by DPP-IV, as Example 3: human placental DPP-IV, 37° C., PBS pH 7.4.
The subject of another data set is CD1 mice. Nature of the data set: Intestinotrophic activity assessment: small bowel weight in mice. The format is in vivo. Particulars: mice, as Example 4; relative to native rat GLP-2(1-33). How it is done:
Recipients were CD1 mice obtained from Charles River Laboratory (Ontario, Canada). The CD1 mice were aged-matched females at time of injection (n=3-4 per group), 6 weeks of age, unless otherwise specified. The animals were allowed a minimum of 24 hours to acclimatize to the laboratory facility before the initiation of each experiment. Animals were identified by ear punch. The mice were not restricted by diet or activity during the experiments. The light/dark cycle was 12 hours, between 6 pm to 6 am. Controls were age- and sex-matched (n=3-4) animals. Mice were injected subcutaneously, twice a day (b.i.d.), with 2.5 μg peptide in a total volume of 0.5 cc of PBS and were monitored daily in the laboratory facility. Animals were sacrificed 10 or 14 days after injection, and were fasted at least 20 hours before sacrifice.
The mice were anaesthetised with CO2 and exsanguinated by cardiac puncture. Blood was collected in 75 μl of TED (Trasysol; EDTA (5000 KIU/ml: 1.2 mg/ml; Diprotin-A), and the blood was centrifuged at 14 k×g for 5 minutes and the plasma was stored at −70 prior to analysis. The small bowel was removed from the peritoneal cavity, from pylorus to cecum, cleaned weighed and measured. For comparative purpose, sections from each animal were obtained from the identical anatomical position. Fragments each measuring 1.5-2.0 cm in length were obtained 8±2 cm, 18±2 cm, 32±2 cm from pylorus for histomorphometry representing proximal jejunum, distal jejunum and distal ileum. Each small bowel fragment was opened longitudinally on its antimesenteric border in a tissue block and then placed on 10% formalin (vol./vol.) overnight, then transferred to 70% […].
Percentage change in small bowel weight was calculated by dividing the mean change in bowel weight of analog treated mice, relative to mice treated with vehicle only, by the mean bowel weight of mice treated with vehicle only, and multiplying this figure by 100.
Experiments assessing the small bowel inducing activity of various analogs was repeated as described above for Example 4. In these experiments, the small bowel inducing activity of each analog in mice was calculated relative to that of native rat GLP-2(1-33) (expressed as 100% of activity). Resistance of analogs to DPP-IV cleavage was performed as described above in Example 3.

Chain of DPP-IV (P27487 whole entry): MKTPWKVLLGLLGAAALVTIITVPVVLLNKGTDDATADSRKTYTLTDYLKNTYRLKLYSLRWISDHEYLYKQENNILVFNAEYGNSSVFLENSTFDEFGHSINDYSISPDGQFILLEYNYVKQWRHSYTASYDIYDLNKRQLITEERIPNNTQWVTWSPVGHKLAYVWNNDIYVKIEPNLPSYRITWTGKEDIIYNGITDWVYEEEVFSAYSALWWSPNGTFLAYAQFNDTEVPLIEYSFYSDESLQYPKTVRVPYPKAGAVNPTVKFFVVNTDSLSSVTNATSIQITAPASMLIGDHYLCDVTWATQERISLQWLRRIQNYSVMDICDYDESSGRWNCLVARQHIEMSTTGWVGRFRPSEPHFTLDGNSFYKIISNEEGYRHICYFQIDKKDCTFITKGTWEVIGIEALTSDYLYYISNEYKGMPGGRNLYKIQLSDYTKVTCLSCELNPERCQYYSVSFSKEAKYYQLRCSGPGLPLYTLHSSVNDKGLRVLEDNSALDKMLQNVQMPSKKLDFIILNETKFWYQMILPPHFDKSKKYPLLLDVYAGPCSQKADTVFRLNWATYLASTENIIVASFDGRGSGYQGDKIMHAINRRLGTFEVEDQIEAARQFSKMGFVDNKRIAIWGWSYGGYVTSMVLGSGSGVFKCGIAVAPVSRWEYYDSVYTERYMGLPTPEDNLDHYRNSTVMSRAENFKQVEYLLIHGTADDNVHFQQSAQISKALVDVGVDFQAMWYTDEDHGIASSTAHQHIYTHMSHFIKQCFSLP

`CCC[C@H](NC(=O)[C@@H](N)Cc1c[nH]cn1)C(=O)N[C@@H](CC(=O)O)C(=O)NCC(=O)N[C@@H](CO)C(=O)N[C@@H](Cc1ccccc1)C(=O)N[C@@H](CO)C(=O)N[C@@H](CC(=O)O)C(=O)N[C@@H](CCC(=O)O)C(=O)N[C@@H](CCSC)C(=O)N[C@@H](CC(N)=O)C(=O)N[C@H](C(=O)N[C@H](C(=O)N[C@@H](CC(C)C)C(=O)N[C@@H](CC(=O)O)C(=O)N[C@@H](CC(N)=O)C(=O)N[C@@H](CC(C)C)C(=O)N[C@@H](C)C(=O)N[C@@H](C)C(=O)N[C@@H](CCCNC(=N)N)C(=O)N[C@@H](CC(=O)O)C(=O)N[C@@H](Cc1ccccc1)C(=O)N[C@H](C(=O)N[C@@H](CC(N)=O)C(=O)N[C@@H](Cc1c[nH]c2ccccc12)C(=O)N[C@@H](CC(C)C)C(=O)N[C@H](C(=O)N[C@@H](CCC(N)=O)C(=O)N[C@H](C(=O)N[C@@H](CCCCN)C(=O)N[C@H](C(=O)N[C@H](C(=O)N[C@@H](CC(=O)O)C(=O)O)[C@@H](C)O)[C@@H](C)CC)[C@@H](C)O)[C@@H](C)CC)[C@@H](C)CC)[C@@H](C)CC)[C@@H](C)O` [[Nval2]hGLP-2(1-33)] (H-H[Nva]DGSFSDEMNTILDNLAARDFINWLIQTKITD-OH): at DPP-IV, the metabolised at 24 h, 0.19 mg/ml is 0%. For the same compound, the “% Activity (small bowel inducing activity relative to native rat GLP-2(1-33) = 100%)” value with CD1 mice was found to be 111%.

On DPP-IV, `CC[C@H](C)[C@H](NC(=O)[C@H](Cc1ccccc1)NC(=O)[C@H](CC(=O)O)NC(=O)[C@H](CCCNC(=N)N)NC(=O)[C@H](C)NC(=O)[C@H](C)NC(=O)[C@H](CC(C)C)NC(=O)[C@H](CC(N)=O)NC(=O)[C@H](CC(=O)O)NC(=O)[C@H](CC(C)C)NC(=O)[C@@H](NC(=O)[C@@H](NC(=O)[C@H](CC(N)=O)NC(=O)[C@H](CCSC)NC(=O)[C@H](CCC(=O)O)NC(=O)[C@H](CC(=O)O)NC(=O)[C@H](CO)NC(=O)[C@H](Cc1ccccc1)NC(=O)[C@H](CO)NC(=O)CNC(=O)[C@H](CC(=O)O)NC(=O)[C@@H](NC(=O)[C@@H](N)Cc1c[nH]cn1)C(C)(C)S)[C@@H](C)O)[C@@H](C)CC)C(=O)N[C@@H](CC(N)=O)C(=O)N[C@@H](Cc1c[nH]c2ccccc12)C(=O)N[C@@H](CC(C)C)C(=O)N[C@H](C(=O)N[C@@H](CCC(N)=O)C(=O)N[C@H](C(=O)N[C@@H](CCCCN)C(=O)N[C@H](C(=O)N[C@H](C(=O)N[C@@H](CC(=O)O)C(=O)O)[C@@H](C)O)[C@@H](C)CC)[C@@H](C)O)[C@@H](C)CC` [[Pen2]hGLP-2(1-33)] (H-H[Pen]DGSFSDEMNTILDNLAARDFINWLIQTKITD-OH) yielded a metabolised at 24 h, 0.19 mg/ml of 20%. Further, the “% Activity (small bowel inducing activity relative to native rat GLP-2(1-33) = 100%)” value in the data set with CD1 mice came to 58%.

`CC[C@H](C)[C@H](NC(=O)[C@H](Cc1ccccc1)NC(=O)[C@H](CC(=O)O)NC(=O)[C@H](CCCNC(=N)N)NC(=O)[C@H](C)NC(=O)[C@H](C)NC(=O)[C@H](CC(C)C)NC(=O)[C@H](CC(N)=O)NC(=O)[C@H](CC(=O)O)NC(=O)[C@H](CC(C)C)NC(=O)[C@@H](NC(=O)[C@@H](NC(=O)[C@H](CC(N)=O)NC(=O)[C@H](CCSC)NC(=O)[C@H](CCC(=O)O)NC(=O)[C@H](CC(=O)O)NC(=O)[C@H](CO)NC(=O)[C@H](Cc1ccccc1)NC(=O)[C@H](CO)NC(=O)CNC(=O)[C@H](CC(=O)O)NC(=O)[C@@H](NC(=O)[C@@H](N)Cc1c[nH]cn1)c1ccccc1)[C@@H](C)O)[C@@H](C)CC)C(=O)N[C@@H](CC(N)=O)C(=O)N[C@@H](Cc1c[nH]c2ccccc12)C(=O)N[C@@H](CC(C)C)C(=O)N[C@H](C(=O)N[C@@H](CCC(N)=O)C(=O)N[C@H](C(=O)N[C@@H](CCCCN)C(=O)N[C@H](C(=O)N[C@H](C(=O)N[C@@H](CC(=O)O)C(=O)O)[C@@H](C)O)[C@@H](C)CC)[C@@H](C)O)[C@@H](C)CC` [[PhGly2]hGLP-2(1-33)] (H-H[Phg]DGSFSDEMNTILDNLAARDFINWLIQTKITD-OH) gave a metabolised at 24 h, 0.19 mg/ml on DPP-IV of 0%. Moreover, in the data set on CD1 mice, the “% Activity (small bowel inducing activity relative to native rat GLP-2(1-33) = 100%)” value was found to be 37%.

Consider `CC[C@H](NC(=O)[C@@H](N)Cc1c[nH]cn1)C(=O)N[C@@H](CC(=O)O)C(=O)NCC(=O)N[C@@H](CO)C(=O)N[C@@H](Cc1ccccc1)C(=O)N[C@@H](CO)C(=O)N[C@@H](CC(=O)O)C(=O)N[C@@H](CCC(=O)O)C(=O)N[C@@H](CCSC)C(=O)N[C@@H](CC(N)=O)C(=O)N[C@H](C(=O)N[C@H](C(=O)N[C@@H](CC(C)C)C(=O)N[C@@H](CC(=O)O)C(=O)N[C@@H](CC(N)=O)C(=O)N[C@@H](CC(C)C)C(=O)N[C@@H](C)C(=O)N[C@@H](C)C(=O)N[C@@H](CCCNC(=N)N)C(=O)N[C@@H](CC(=O)O)C(=O)N[C@@H](Cc1ccccc1)C(=O)N[C@H](C(=O)N[C@@H](CC(N)=O)C(=O)N[C@@H](Cc1c[nH]c2ccccc12)C(=O)N[C@@H](CC(C)C)C(=O)N[C@H](C(=O)N[C@@H](CCC(N)=O)C(=O)N[C@H](C(=O)N[C@@H](CCCCN)C(=O)N[C@H](C(=O)N[C@H](C(=O)N[C@@H](CC(=O)O)C(=O)O)[C@@H](C)O)[C@@H](C)CC)[C@@H](C)O)[C@@H](C)CC)[C@@H](C)CC)[C@@H](C)CC)[C@@H](C)O` [[aAbu2]hGLP-2(1-33)] (H-H[Abu]DGSFSDEMNTILDNLAARDFINWLIQTKITD-OH), for which the metabolised at 24 h, 0.19 mg/ml on DPP-IV was found to be 49%. Besides, the “% Activity (small bowel inducing activity relative to native rat GLP-2(1-33) = 100%)” value with CD1 mice is 84%.

`CC[C@H](C)[C@H](NC(=O)[C@H](Cc1ccccc1)NC(=O)[C@H](CC(=O)O)NC(=O)[C@H](CCCNC(=N)N)NC(=O)[C@H](C)NC(=O)[C@H](C)NC(=O)[C@H](CC(C)C)NC(=O)[C@H](CC(N)=O)NC(=O)[C@H](CC(=O)O)NC(=O)[C@H](CC(C)C)NC(=O)[C@@H](NC(=O)[C@@H](NC(=O)[C@H](CC(N)=O)NC(=O)[C@H](CCSC)NC(=O)[C@H](CCC(=O)O)NC(=O)[C@H](CC(=O)O)NC(=O)[C@H](CO)NC(=O)[C@H](Cc1ccccc1)NC(=O)[C@H](CO)NC(=O)CNC(=O)[C@H](CC(=O)O)NC(=O)CCNC(=O)[C@@H](N)Cc1c[nH]cn1)[C@@H](C)O)[C@@H](C)CC)C(=O)N[C@@H](CC(N)=O)C(=O)N[C@@H](Cc1c[nH]c2ccccc12)C(=O)N[C@@H](CC(C)C)C(=O)N[C@H](C(=O)N[C@@H](CCC(N)=O)C(=O)N[C@H](C(=O)N[C@@H](CCCCN)C(=O)N[C@H](C(=O)N[C@H](C(=O)N[C@@H](CC(=O)O)C(=O)O)[C@@H](C)O)[C@@H](C)CC)[C@@H](C)O)[C@@H](C)CC` [[bAla2]hGLP-2(1-33)] (H-H[βAla]DGSFSDEMNTILDNLAARDFINWLIQTKITD-OH) yielded a metabolised at 24 h, 0.19 mg/ml on DPP-IV of 0%. Moreover, the “% Activity (small bowel inducing activity relative to native rat GLP-2(1-33) = 100%)” value with CD1 mice is 118%.
